Data published in patent US20210045385A1, “PYRIDAZINONE-SUBSTITUTED KETOXIMES AS HERBICIDES” (FMC Corporation, priority 2018, published 2021).

Key:
Type in all cases: in vivo
[1] = system: ragweed (common ragweed, Ambrosia artemisiifolia); assay: Test C postemergence, visual plant response rating
How it was run: (§1)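 Seeds sown in a loam–sand blend got a directed preemergence soil spray; postemergence plants (2–10 cm, one- to two-leaf stage) were sprayed with compound in a non-phytotoxic solvent plus surfactant. Injury was scored visually against untreated controls after about 10 d in a greenhouse on a 0–100 scale (100 = complete control).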

kochia (Bassia scoparia) [2] = assay: Test C postemergence, visual plant response rating
How it was run: as §1

[3] = system: pigweed (Amaranthus retroflexus); assay: Test C postemergence, visual plant response rating
How it was run: as §1

[4] = system: wheat (Triticum aestivum); assay: Test C postemergence, visual plant response rating
How it was run: as §1

[5] = system: blackgrass (Alopecurus myosuroides); assay: Test C postemergence, visual plant response rating
How it was run: as §1

[6] = system: barnyardgrass (Echinochloa crus-galli); assay: Test C postemergence, visual plant response rating
How it was run: as §1

[7] = system: foxtail, giant (giant foxtail, Setaria faberi); assay: Test C postemergence, visual plant response rating
How it was run: as §1

corn (Zea mays) = assay: Test C postemergence, visual plant response rating
How it was run: as §1

[8] = system: galium (catchweed bedstraw, Galium aparine); assay: Test C postemergence, visual plant response rating
How it was run: as §1

[9] = system: Italian ryegrass (Lolium mutiflorum); assay: Test C postemergence, visual plant response rating
How it was run: as §1

[10] = system: barnyardgrass (Echinochloa crus-galli); assay: Test D flooded paddy test, visual plant response rating; settings: 250 g ai/ha, scale 0 to 100 (0 no effect, 100 complete control), 13 to 15 d
How it was run: (§2)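 Greenhouse paddy assay scored on a 0–100 visual scale after 13 to 15 d, where 100 means complete control and a dash marks no result; dosing was into 3 cm floodwater over 2-leaf plants.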

[11] = system: duck salad (Heteranthera limosa); assay: as above; settings: 250 g ai/ha, scale 0 to 100 (0 no effect, 100 complete control), 13 to 15 d
How it was run: as §2

rice (Oryza sativa) = assay: as above; settings: 250 g ai/ha, scale 0 to 100 (0 no effect, 100 complete control), 13 to 15 d
How it was run: as §2

[12] = system: sedge umbrella (small-flower umbrella sedge, Cyperus difformis); assay: as above; settings: 250 g ai/ha, scale 0 to 100 (0 no effect, 100 complete control), 13 to 15 d
How it was run: as §2

[13] = system: ragweed (common ragweed, Ambrosia artemisiifolia); assay: Test C preemergence, visual plant response rating; settings: Test C, 0 is no effect, 100 is complete control
How it was run: as §1

kochia (Bassia scoparia) [14] = assay: Test C preemergence, visual plant response rating; settings: Test C, 0 is no effect, 100 is complete control
How it was run: as §1

[15] = system: pigweed (Amaranthus retroflexus); assay: Test C preemergence, visual plant response rating; settings: Test C, 0 is no effect, 100 is complete control
How it was run: as §1

[16] = system: barnyardgrass (Echinochloa crus-galli); assay: Test C preemergence, visual plant response rating; settings: Test C, 0 is no effect, 100 is complete control
How it was run: as §1

[17] = system: foxtail, giant (giant foxtail, Setaria faberi); assay: Test C preemergence, visual plant response rating; settings: Test C, 0 is no effect, 100 is complete control
How it was run: as §1

[18] = system: Italian ryegrass (Lolium mutiflorum); assay: Test C preemergence, visual plant response rating; settings: Test C, 0 is no effect, 100 is complete control
How it was run: as §1

[19] = Test C, postemergence, 125 g ai/ha

Row | Compound | Ragweed plant response rating (0 to 100 scale) ([1]; Postemergence, 31 g ai/ha) | Ragweed plant response rating (0 to 100 scale) [1, 19] | Kochia plant response rating (0 to 100 scale) (kochia (Bassia scoparia) [2]; Postemergence, 31 g ai/ha) | Kochia plant response rating (0 to 100 scale) (kochia (Bassia scoparia) [2]; [19]) | Pigweed plant response rating (0 to 100 scale) ([3]; Postemergence, 31 g ai/ha) | Pigweed plant response rating (0 to 100 scale) [3, 19] | Wheat plant response rating (0 to 100 scale) ([4]; Postemergence, 31 g ai/ha) | Wheat plant response rating (0 to 100 scale) [4, 19] | Blackgrass plant response rating (0 to 100 scale) ([5]; Postemergence, 31 g ai/ha) | Blackgrass plant response rating (0 to 100 scale) [5, 19] | Barnyardgrass plant response rating (0 to 100 scale) ([6]; Postemergence, 31 g ai/ha) | Barnyardgrass plant response rating (0 to 100 scale) [6, 19] | Foxtail, Giant plant response rating (0 to 100 scale) ([7]; Postemergence, 31 g ai/ha) | Foxtail, Giant plant response rating (0 to 100 scale) [7, 19] | Corn plant response rating (0 to 100 scale) (corn (Zea mays); Postemergence, 31 g ai/ha) | Corn plant response rating (0 to 100 scale) (corn (Zea mays); [19]) | Galium plant response rating (0 to 100 scale) ([8]; Postemergence, 31 g ai/ha) | Galium plant response rating (0 to 100 scale) [8, 19] | Ryegrass, Italian plant response rating (0 to 100 scale) ([9]; Postemergence, 31 g ai/ha) | Ryegrass, Italian plant response rating (0 to 100 scale) [9, 19] | other results
1 | CO/N=C(/c1cccc(/C=C\Cl)c1)c1c(O)c(C)nn(C)c1=O [Compound 287] | 20 | 50 | 0 | 10 | 10 | 20 | 0 | 0 | 10 | 30 | 0 | 60 | 10 | 70 | 0 | 10 | 50 | 70 | 20 | 80 | Plant response rating, Barnyardgrass (Flood) [10]: 0; Plant response rating, Ducksalad (Flood) [11]: 0; Plant response rating, Rice (Flood) (rice (Oryza sativa)): 0; Plant response rating, Sedge, Umbrella (Flood) [12]: 0; Ragweed plant response rating (0 to 100 scale) ([13]; 31 g ai/ha): 0; Ragweed plant response rating (0 to 100 scale) ([13]; 125 g ai/ha): 20; Kochia plant response rating (0 to 100 scale) (kochia (Bassia scoparia) [14]; 31 g ai/ha): 0; Kochia plant response rating (0 to 100 scale) (kochia (Bassia scoparia) [14]; 125 g ai/ha): 0; Pigweed plant response rating (0 to 100 scale) ([15]; 31 g ai/ha): 0; Pigweed plant response rating (0 to 100 scale) ([15]; 125 g ai/ha): 0; Barnyardgrass plant response rating (0 to 100 scale) ([16]; 31 g ai/ha): 40; Barnyardgrass plant response rating (0 to 100 scale) ([16]; 125 g ai/ha): 90; Foxtail, Giant plant response rating (0 to 100 scale) ([17]; 31 g ai/ha): 10; Foxtail, Giant plant response rating (0 to 100 scale) ([17]; 125 g ai/ha): 40; Ryegrass, Italian plant response rating (0 to 100 scale) ([18]; 31 g ai/ha): 50; Ryegrass, Italian plant response rating (0 to 100 scale) ([18]; 125 g ai/ha): 90
2 | C=CCO/N=C(\c1c(O)c(C)nn(C)c1=O)c1cccc2cc(Cl)ccc12 [Compound 243] | 60 | 90 | 20 | 20 | 80 | 90 | 0 | 0 | 30 | 50 | 70 | 80 | 70 | 80 | 0 | 30 | 80 | 90 | 10 | 40 | Plant response rating, Barnyardgrass (Flood) [10]: 40; Plant response rating, Ducksalad (Flood) [11]: 80; Plant response rating, Rice (Flood) (rice (Oryza sativa)): 45; Plant response rating, Sedge, Umbrella (Flood) [12]: 100; Ragweed plant response rating (0 to 100 scale) ([13]; 31 g ai/ha): 30; Ragweed plant response rating (0 to 100 scale) ([13]; 125 g ai/ha): 80; Kochia plant response rating (0 to 100 scale) (kochia (Bassia scoparia) [14]; 31 g ai/ha): 0; Kochia plant response rating (0 to 100 scale) (kochia (Bassia scoparia) [14]; 125 g ai/ha): 0; Pigweed plant response rating (0 to 100 scale) ([15]; 31 g ai/ha): 70; Pigweed plant response rating (0 to 100 scale) ([15]; 125 g ai/ha): 100; Barnyardgrass plant response rating (0 to 100 scale) ([16]; 31 g ai/ha): 20; Barnyardgrass plant response rating (0 to 100 scale) ([16]; 125 g ai/ha): 80; Foxtail, Giant plant response rating (0 to 100 scale) ([17]; 31 g ai/ha): 80; Foxtail, Giant plant response rating (0 to 100 scale) ([17]; 125 g ai/ha): 100; Ryegrass, Italian plant response rating (0 to 100 scale) ([18]; 31 g ai/ha): 0; Ryegrass, Italian plant response rating (0 to 100 scale) ([18]; 125 g ai/ha): 20
